Experimental findings from ChEMBL document CHEMBL5465560, “Selectivity Literature for EUbOPEN Chemogenomic Library” (2024) are described below.

In assay [1] the target is T1, Serine/threonine-protein kinase PLK4 (Homo sapiens) (UniProt O00444).
T1 sequence (whole entry): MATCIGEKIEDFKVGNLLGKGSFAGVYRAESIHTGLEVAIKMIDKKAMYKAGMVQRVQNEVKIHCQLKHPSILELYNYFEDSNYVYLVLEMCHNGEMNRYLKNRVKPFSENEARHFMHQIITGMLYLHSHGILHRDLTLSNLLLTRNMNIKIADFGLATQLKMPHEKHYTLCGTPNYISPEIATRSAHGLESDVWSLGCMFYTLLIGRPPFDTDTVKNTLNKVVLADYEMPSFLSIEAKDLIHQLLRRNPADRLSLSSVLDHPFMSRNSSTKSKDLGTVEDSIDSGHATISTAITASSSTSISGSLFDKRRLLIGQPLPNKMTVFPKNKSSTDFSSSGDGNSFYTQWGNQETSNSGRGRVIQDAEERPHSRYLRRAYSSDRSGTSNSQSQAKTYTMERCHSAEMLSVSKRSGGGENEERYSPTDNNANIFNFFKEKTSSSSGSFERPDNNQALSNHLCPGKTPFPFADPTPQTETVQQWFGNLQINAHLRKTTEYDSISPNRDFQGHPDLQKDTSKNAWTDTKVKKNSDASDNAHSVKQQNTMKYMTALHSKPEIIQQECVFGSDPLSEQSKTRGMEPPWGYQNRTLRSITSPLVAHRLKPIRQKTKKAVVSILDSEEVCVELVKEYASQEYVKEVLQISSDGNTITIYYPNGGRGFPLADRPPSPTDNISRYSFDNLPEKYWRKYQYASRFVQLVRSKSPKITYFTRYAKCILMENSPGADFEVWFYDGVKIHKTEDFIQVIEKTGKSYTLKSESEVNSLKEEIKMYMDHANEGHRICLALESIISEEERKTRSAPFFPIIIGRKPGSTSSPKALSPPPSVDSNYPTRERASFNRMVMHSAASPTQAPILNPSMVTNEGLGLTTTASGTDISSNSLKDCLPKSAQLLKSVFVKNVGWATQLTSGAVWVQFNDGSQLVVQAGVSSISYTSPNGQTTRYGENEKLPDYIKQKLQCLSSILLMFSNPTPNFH
Kind of assay: Selectivity interaction (KinomeScan (DiscoverX)) EUB0000092b PLK4. The following applies: at 10 µM.

Assay [2] addresses T2, Tyrosine-protein kinase ZAP-70 (Homo sapiens) (UniProt P43403).
T2 sequence (whole entry): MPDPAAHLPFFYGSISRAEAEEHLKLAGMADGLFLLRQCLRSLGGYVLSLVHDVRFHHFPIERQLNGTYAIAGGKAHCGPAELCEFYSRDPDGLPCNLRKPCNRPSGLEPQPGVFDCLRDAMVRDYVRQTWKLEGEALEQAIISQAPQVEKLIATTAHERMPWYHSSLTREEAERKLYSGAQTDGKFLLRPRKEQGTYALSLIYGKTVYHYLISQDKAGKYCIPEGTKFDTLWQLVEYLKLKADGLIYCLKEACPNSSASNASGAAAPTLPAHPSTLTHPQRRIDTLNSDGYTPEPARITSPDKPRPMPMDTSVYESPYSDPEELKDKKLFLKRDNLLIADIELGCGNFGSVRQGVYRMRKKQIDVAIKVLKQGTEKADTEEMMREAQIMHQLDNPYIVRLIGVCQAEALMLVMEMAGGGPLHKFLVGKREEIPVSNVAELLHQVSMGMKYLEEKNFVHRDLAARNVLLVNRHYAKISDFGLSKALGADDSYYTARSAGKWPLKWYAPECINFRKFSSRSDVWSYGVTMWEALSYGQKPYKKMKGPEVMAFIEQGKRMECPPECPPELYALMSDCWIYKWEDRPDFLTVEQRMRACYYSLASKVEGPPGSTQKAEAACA
Kind of assay: Selectivity interaction (KinomeScan (DiscoverX)) EUB0001049a ZAP70. The following applies: at 1 µM.

Assay [3] deals with Adenosine receptor A1 (Homo sapiens) (UniProt P30542). Kind of assay: Selectivity interaction (Eurofins CEREP Diversity Profile (receptors and ion channels)) EUB0000279b ADORA1. The following applies: at 10 µM.
Chain of Adenosine receptor A1 (Homo sapiens) (P30542 whole entry): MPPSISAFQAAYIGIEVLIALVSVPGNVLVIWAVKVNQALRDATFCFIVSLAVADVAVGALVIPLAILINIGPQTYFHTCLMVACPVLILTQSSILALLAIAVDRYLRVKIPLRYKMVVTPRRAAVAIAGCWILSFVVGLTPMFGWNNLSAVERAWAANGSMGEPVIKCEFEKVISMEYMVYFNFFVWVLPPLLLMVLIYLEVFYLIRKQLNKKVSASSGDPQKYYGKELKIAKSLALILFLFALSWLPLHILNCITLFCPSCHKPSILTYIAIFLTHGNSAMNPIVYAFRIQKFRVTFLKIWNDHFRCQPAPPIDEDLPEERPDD
The target of assay [4] is Protein-tyrosine kinase 2-beta (Homo sapiens) (UniProt Q14289). Kind of assay: Selectivity interaction (KinomeScan (DiscoverX)) EUB0000045b PTK2B.
Chain of Protein-tyrosine kinase 2-beta (Homo sapiens) (Q14289 whole entry, looked up): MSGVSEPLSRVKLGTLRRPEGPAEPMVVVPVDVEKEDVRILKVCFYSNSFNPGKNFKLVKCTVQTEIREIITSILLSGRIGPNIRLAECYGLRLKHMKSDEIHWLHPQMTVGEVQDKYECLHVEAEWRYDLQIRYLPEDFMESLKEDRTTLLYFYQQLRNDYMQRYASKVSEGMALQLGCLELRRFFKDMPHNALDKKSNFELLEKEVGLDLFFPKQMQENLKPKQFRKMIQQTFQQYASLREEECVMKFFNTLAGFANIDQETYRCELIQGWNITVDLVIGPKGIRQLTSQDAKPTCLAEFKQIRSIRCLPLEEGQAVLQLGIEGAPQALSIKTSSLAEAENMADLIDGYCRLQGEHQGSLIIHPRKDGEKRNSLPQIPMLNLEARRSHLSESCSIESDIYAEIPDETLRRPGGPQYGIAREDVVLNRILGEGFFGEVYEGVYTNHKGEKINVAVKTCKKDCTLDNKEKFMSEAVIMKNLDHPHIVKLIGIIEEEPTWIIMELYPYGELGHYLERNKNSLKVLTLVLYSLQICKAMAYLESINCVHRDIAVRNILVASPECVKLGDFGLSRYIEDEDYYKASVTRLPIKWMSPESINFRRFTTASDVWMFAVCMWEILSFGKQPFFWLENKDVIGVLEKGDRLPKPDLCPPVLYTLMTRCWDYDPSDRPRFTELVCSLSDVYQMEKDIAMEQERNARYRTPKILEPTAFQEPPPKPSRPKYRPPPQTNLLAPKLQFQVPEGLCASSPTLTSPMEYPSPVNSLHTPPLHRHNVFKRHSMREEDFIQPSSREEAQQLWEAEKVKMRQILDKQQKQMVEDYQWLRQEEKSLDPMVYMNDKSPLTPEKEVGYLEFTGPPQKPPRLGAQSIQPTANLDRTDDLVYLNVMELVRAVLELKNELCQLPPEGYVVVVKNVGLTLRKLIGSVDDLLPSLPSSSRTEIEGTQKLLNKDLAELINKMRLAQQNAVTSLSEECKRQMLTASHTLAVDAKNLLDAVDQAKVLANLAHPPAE
Assay [5] deals with Serine/threonine-protein kinase 10 (Homo sapiens) (UniProt O94804). As to the kind of experiment: Selectivity interaction (KinomeScan (DiscoverX)) EUB0000607a STK10. The conditions noted are these: at 10 µM.
Chain of Serine/threonine-protein kinase 10 (Homo sapiens) (O94804 whole entry, looked up): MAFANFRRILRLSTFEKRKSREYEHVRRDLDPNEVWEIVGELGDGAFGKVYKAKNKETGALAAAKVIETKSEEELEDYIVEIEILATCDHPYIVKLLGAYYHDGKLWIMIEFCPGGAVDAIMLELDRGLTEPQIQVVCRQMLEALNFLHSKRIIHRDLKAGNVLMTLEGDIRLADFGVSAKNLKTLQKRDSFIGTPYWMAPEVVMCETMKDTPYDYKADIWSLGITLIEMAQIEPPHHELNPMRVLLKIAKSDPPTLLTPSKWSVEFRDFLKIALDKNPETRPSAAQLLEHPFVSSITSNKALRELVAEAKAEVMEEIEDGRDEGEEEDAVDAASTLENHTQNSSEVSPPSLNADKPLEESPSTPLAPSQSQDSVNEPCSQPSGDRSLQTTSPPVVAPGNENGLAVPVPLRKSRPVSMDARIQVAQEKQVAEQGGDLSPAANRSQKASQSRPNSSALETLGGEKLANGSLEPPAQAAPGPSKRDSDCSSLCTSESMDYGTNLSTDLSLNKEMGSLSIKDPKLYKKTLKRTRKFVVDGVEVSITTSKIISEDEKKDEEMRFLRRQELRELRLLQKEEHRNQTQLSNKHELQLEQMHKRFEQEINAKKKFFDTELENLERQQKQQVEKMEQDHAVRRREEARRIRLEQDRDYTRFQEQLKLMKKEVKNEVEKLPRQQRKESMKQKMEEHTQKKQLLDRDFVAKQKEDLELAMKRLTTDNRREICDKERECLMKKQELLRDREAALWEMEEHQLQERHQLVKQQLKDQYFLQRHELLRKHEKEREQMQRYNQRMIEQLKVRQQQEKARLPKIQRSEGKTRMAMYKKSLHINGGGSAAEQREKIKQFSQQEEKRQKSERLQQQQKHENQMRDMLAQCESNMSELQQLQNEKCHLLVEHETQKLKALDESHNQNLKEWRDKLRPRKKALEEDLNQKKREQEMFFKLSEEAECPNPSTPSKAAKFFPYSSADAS
Assay [6] addresses T3, Mitogen-activated protein kinase kinase kinase kinase 2 (Homo sapiens) (UniProt Q12851).
T3 sequence (whole entry): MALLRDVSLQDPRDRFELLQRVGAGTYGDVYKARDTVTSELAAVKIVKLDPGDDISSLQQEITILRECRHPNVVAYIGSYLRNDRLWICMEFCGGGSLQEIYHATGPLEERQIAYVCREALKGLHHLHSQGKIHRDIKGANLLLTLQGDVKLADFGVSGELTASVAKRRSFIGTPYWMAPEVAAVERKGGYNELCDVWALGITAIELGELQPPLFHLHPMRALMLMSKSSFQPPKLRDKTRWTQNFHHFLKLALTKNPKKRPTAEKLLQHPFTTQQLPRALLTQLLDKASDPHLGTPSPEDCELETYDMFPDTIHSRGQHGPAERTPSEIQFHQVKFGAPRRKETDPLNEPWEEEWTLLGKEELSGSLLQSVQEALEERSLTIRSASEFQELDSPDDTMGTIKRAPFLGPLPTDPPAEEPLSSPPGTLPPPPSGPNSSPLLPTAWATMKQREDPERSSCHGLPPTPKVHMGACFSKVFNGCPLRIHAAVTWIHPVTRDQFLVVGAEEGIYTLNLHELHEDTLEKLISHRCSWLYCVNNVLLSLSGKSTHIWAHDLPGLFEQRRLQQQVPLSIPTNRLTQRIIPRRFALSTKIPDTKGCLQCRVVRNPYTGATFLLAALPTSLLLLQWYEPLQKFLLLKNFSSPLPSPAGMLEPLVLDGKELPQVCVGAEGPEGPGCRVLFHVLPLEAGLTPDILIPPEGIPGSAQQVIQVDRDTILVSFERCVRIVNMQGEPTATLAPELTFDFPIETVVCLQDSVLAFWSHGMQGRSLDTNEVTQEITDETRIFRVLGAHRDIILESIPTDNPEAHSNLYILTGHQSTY
Kind of assay: Selectivity interaction (KinomeScan (DiscoverX)) EUB0001619a MAP4K2. The following applies: at 1 µM.

In turn, `CCC(=O)N1CCN(c2ccc(-n3c(=O)ccc4cnc5ccc(-c6cnc7ccccc7c6)cc5c43)cc2C(F)(F)F)CC1` returned a % of control in assay [1] of 100%.
For `COc1cc(Nc2nc(C)cc(-c3cnn4nc(OC)ccc34)n2)cc(C(F)(F)F)c1`, in assay [2], the % of control was 95%.
As to `CC(=O)c1cc(-c2ccccc2OCC2CC2)c2ncccn12`, the % of control in assay [3] stood at 35%.
Turning to `C=CC(=O)Nc1cc(-n2c(=O)ccc3cnc4ccc(-c5ccc(NS(C)(=O)=O)cc5)cc4c32)ccc1C`, the % of control came out at 100% in assay [4] (at 1 µM) and 92% in assay [4] (at 10 µM).
`CNC(=O)Nc1ccc(-c2nc(N3CC4CCC(C3)O4)c3cnn(C4CCC5(CC4)OCCO5)c3n2)cc1` gave a % of control in assay [5] of 99%.
`N#Cc1cccc(-c2c[nH]c3ncnc(N4CCOCC4)c23)c1` showed a % of control in assay [6] of 3.4%.
